Reference: patent US20230339991A1, “HYPOXIA-ACTIVATED DNA ALKYLATING AGENT AND MEDICAL USE THEREOF” (ASCENTAWITS PHARMACEUTICALS, LTD., priority 2020, published 2023)
Values joined by “and” are separate entries in the source; they are usually repeats but may differ in a detail not shown here. Equal entries are not always repeated. Where two headings read alike, the source gives them in different places.

Experiments:
P-gp = P-gp (Homo sapiens, UniProt P08183); experiment: P-gp substrate evaluation, MDCKII-MDR1 penetration test; conditions: for recovery at 2 h: dog
Chain of P-gp (P08183 whole entry): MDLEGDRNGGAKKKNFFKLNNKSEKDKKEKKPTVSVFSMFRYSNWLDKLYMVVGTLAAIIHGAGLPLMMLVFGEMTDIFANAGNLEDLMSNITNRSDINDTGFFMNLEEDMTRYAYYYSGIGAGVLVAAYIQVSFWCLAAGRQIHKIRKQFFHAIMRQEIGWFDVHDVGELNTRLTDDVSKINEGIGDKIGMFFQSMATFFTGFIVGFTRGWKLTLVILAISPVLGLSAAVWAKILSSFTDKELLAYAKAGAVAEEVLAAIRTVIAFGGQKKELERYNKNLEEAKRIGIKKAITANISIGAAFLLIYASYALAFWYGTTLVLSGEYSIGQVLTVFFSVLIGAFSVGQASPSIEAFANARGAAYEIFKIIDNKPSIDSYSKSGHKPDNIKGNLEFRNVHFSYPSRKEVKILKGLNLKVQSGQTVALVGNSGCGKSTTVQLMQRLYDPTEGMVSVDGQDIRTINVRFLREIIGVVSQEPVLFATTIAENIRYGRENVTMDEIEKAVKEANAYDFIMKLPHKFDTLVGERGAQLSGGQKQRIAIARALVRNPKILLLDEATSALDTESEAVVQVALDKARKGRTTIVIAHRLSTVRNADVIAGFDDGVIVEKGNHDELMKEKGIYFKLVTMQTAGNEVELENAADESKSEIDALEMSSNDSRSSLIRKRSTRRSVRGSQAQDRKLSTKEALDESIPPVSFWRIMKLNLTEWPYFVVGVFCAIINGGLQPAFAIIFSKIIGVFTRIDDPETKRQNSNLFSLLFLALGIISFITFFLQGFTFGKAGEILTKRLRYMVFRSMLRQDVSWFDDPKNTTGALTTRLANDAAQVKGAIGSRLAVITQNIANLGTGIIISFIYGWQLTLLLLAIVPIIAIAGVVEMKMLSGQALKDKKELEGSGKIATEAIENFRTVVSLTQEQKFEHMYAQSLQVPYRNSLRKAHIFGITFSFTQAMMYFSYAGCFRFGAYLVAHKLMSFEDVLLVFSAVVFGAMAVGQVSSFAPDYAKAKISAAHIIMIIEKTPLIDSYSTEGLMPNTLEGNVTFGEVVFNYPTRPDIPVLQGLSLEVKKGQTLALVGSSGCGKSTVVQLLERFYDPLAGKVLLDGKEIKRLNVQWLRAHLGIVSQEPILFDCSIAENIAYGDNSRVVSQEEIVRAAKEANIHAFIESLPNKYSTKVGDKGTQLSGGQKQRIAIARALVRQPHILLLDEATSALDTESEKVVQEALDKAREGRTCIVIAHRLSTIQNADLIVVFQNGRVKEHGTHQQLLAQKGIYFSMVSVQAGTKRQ
Protocol: (1) MDCKII-MDR1 cells were cultured in the cell culture bottle. The conditions of the incubator were 37° C., 5% of CO2, and 95% of the relative humidity. When the cell growth confluence was up to 70-90%, the cells were inoculated to the transwell.
The cell suspension was transferred to the upper compartment of the 96-well transwell, wherein each upper compartment contains 50 μL of the cell suspension. The final inoculum density was 5.45×10^5 cells/cm^2.
(1) The transwell culture plate of the MDCKII-MDRT cells was taken out from the incubator. The cell monolayer membrane was rinsed two times with the buffer solution and incubated at 37° C. for 30 min.
(2) The transport rate that the compound was transported from the top-end to the base-end was tested. 75 μL of the buffer solution contained the sample was added to each upper compartment (top-end), and 235 μL of the buffer solution was added to each lower compartment (base-end).
(3) The transport rate that the compound was transported from the base-end to the top-end was tested. 75 μL of the buffer solution was added to each upper compartment (top-end), and 235 μL of the buffer solution contained the sample was added to each lower compartment (base-end).
(6) The upper and lower transits were merged up and then incubated at 37° C. for 2 h.
(7) After the incubation was finished, 50 μL of the samples from each well of the upper compartment and the lower compartment of the transwell culture plate were respectively added to new sample tubes. 200 μL of the acetonitrile containing the internal standard (100 nM Alprazolam, 200 nM Labetalol, 200 nM caffeine and 2 μM Ketoprofen) was added to each sample tube. After the sample tubes were vortexed for 10 min, they were centrifuged at 3220 g for 30 min. 100 μL of the supernatant was taken and diluted with the same volume of the water to perform the LC-MS/MS analysis. Each sample was adopted to the three parallel incubation.
The peak area was calculated by the result of the ion chromatography. The permeability coefficient (Papp, unit: cm/s×10^−6) of the compound was calculated by the formula: […]
In the formula, “VA” refers to the volume of the solution on the acceptor (Ap→Bl was 0.235 mL, and Bl→Ap was 0.075 mL), “Area” refers to the area of the permeable membrane of the 96-well transwell (0.143 cm^2), “time” refers to the incubation time (in second), “[drug]acceptor” refers to the drug concentration of the acceptor after the incubation, and “[drug]initial, donor” refers to the initial concentration of the drug administration before the incubation.
The efflux ratio was calculated by the following formula: […]
In the formula, “Papp (B-A)” refers to the permeability coefficient from the base-end to the top-end, and the term “Papp (A-B)” refers to the permeability coefficient from the top-end to the base-end.
The recovery was calculated by the following formula: […]
In the formula, “VA” refers to the volume of the solution on the acceptor (mL), “VD” refers to the volume of the solution on the donor (mL), “[drug]acceptor” refers to the drug concentration of the acceptor after the incubation, “[drug]donor” refers to the drug concentration of the donor after the incubation, and the term “[drug]initial, donor” refers to the initial concentration of the drug administration before the incubation.

[1] = Blood-brain barrier experiment, brain and plasma concentrations after IV dosing; format: in vivo, CD-1 mice; conditions: for half-life: read-out: T½ (converted)
Protocol: Three CD-1 […] were administered 1 mg/kg of the test compound intravenously at each time point. Blood and brain tissue were collected at 5 min, 15 min, 1 h, 2 h, 4 h and 8 h after administration.

Plasma stability, monkey = format: in vitro ADME; conditions: Monkey plasma; after 30 minutes
Protocol: The pH of the plasma was checked and recorded. Note: a.
The final concentration of solvent was 0.5%.
The assay is performed in duplicate.

MiaPaCa-2 cells = experiment: Clonogenic assay, MiaPaCa-2; format: cell-based, human; conditions: for IC90: Homo sapiens, MIA PaCa-2, 3 h
Protocol: The following PSN-1 cells, PANC1 cells, MiaPaCa-2 cells, H460 cells, DLD-1 WT (wild type) cells, DLD-1 BRCA2 KO (BRCA2 deletion) cells were seeded in 10 cm vitreous cell culture plates at specific cell numbers and incubated for 2 days at 37° C. and under the conditions of 5% CO2, 95% air and 100% relative humidity. On day 3, test compounds TH302 or AST-002-P2 at the specific concentrations were added to the cells, and incubated for 3 hours together with the cells under normoxic (21% O2) and hypoxic conditions (<0.01% O2), respectively. After cells were stimulated by compounds, the cells were washed once with 1×PBS and digested into single cells with pancreatic enzymes for cell counting. The above cells in specific cell numbers were reseeded in a new culture plate and cultured for 7 days to perform single cell colony formation. When single cells in compound culture plates stimulated under normoxic conditions proliferated to about 50 cells, the cultures were removed and stained with 0.5% crystal violet for 40 minutes. After staining, cells were counted for colonies using Colony Counter (VWR) and the IC90 was calculated.

[2] = CD-1, mouse, plasma, IV 1 mg/kg
[3] = IV 1 mg/kg, 0.083 h, single animals, 1 mg/kg
[4] = IV 1 mg/kg, 0.25 h, single animals, 1 mg/kg
[5] = IV 1 mg/kg, 1 h, single animals, 1 mg/kg
[6] = IV 1 mg/kg, 2 h, single animals, 1 mg/kg
[7] = IV 1 mg/kg, 4 h, single animals, 1 mg/kg
[8] = IV 1 mg/kg, 8 h, single animals

SMILES: O=[N+]([O-])c1ccc([C@H](OP(=O)(N2CC2)N2CC2)C(F)(F)F)c2ccccc12 [Compound B]
- recovery at 2 h (P-gp; MDCK-MDR1, Recovery (%) AP-BL, verapamil 0 μM): 59.3%
- recovery at 2 h (P-gp; MDCK-MDR1, Recovery (%) AP-BL, verapamil 100 μM): 65.2%
- recovery at 2 h (P-gp; MDCK-MDR1, Recovery (%) BL-AP, verapamil 100 μM): 68.3%
- Pgp substrate status (P-gp; with and without verapamil): not substrates for Pgp
- concentration at 0.083 h ([1]; CD-1, mouse, brain, iv, 1 mg/kg, IV 1 mg/kg, 0.083 h, single animals, read-out: Brain concentration): 992 ng/g
- concentration at 0.25 h ([1]; CD-1, mouse, brain, iv, 1 mg/kg, IV 1 mg/kg, 0.25 h, single animals, read-out: Brain concentration): 499 ng/g
- concentration at 1 h ([1]; CD-1, mouse, brain, iv, 1 mg/kg, IV 1 mg/kg, 1 h, single animals, read-out: Brain concentration): 88.1 ng/g
- concentration at 2 h ([1]; CD-1, mouse, brain, iv, 1 mg/kg, IV 1 mg/kg, 2 h, single animals, read-out: Brain concentration): 9 ng/g
- concentration at 4 h ([1]; CD-1, mouse, brain, iv, 1 mg/kg, IV 1 mg/kg, 4 h, single animals): 1.34 ng/g
- Kp at 0.083 h ([1]; CD-1, mouse, brain/plasma, iv, 1 mg/kg, IV 1 mg/kg, 0.083 h, read-out: Mean Ratio (Brain/Plasma)): 2.25
- Kp at 0.083 h ([1]; CD-1, mouse, brain/plasma, iv, 1 mg/kg, IV 1 mg/kg, 0.083 h, single animals, read-out: Ratio (Brain/Plasma)): 2.18
- Kp at 0.25 h ([1]; CD-1, mouse, brain/plasma, iv, 1 mg/kg, IV 1 mg/kg, 0.25 h, single animals, read-out: Ratio (Brain/Plasma)): 1.47
- Kp at 1 h ([1]; CD-1, mouse, brain/plasma, iv, 1 mg/kg, IV 1 mg/kg, 1 h, read-out: Mean Ratio (Brain/Plasma)): 1.39
- Kp at 1 h ([1]; CD-1, mouse, brain/plasma, iv, 1 mg/kg, IV 1 mg/kg, 1 h, single animals, read-out: Ratio (Brain/Plasma)): 1.26
- Kp at 2 h ([1]; CD-1, mouse, brain/plasma, iv, 1 mg/kg, IV 1 mg/kg, 2 h, read-out: Mean Ratio (Brain/Plasma)): 1.34
- Kp at 4 h ([1]; CD-1, mouse, brain/plasma, iv, 1 mg/kg, IV 1 mg/kg, 4 h, single animals, read-out: Ratio (Brain/Plasma)): 1.19
- Kp ([1]; CD-1, mouse, brain/plasma, iv, 1 mg/kg, IV 1 mg/kg, read-out: AUClnf Ratio (Brain/Plasma)): 1.49
- concentration at 0.083 h ([1]; CD-1, mouse, plasma, iv, 1 mg/kg, IV 1 mg/kg, 0.083 h, single animals, read-out: Plasma concentration): 454 ng/mL
- concentration at 0.25 h ([1]; CD-1, mouse, plasma, iv, 1 mg/kg, IV 1 mg/kg, 0.25 h, single animals, read-out: Plasma concentration): 341 ng/mL
- concentration at 1 h ([1]; CD-1, mouse, plasma, iv, 1 mg/kg, IV 1 mg/kg, 1 h, single animals, read-out: Plasma concentration): 70 ng/mL
- concentration at 2 h ([1]; CD-1, mouse, plasma, iv, 1 mg/kg, IV 1 mg/kg, 2 h, single animals, read-out: Plasma concentration): 8.54 ng/mL
- half-life ([1]; CD-1, mouse, brain tissue, IV 1 mg/kg): 19.8 min
- AUC(0-t) [1, 2]: 289 ng·h/mL
- C0 [1, 2]: 532 ng/mL
- half-life [1, 2]: 27 min
- Brain concentration [1, 3]: 1038.97 ng/g and 916.57 ng/g
- Plasma concentration [1, 3]: 485.00 ng/mL and 393.31 ng/mL
- Ratio (Brain/Plasma) [1, 3]: 2.23 and 2.33
- Brain concentration [1, 4]: 480.24 ng/g and 420.87 ng/g
- Plasma concentration [1, 4]: 289.25 ng/mL and 256.49 ng/mL
- Ratio (Brain/Plasma) [1, 4]: 1.66 and 1.64
- Brain concentration [1, 5]: 104.66 ng/g and 103.20 ng/g
- Plasma concentration [1, 5]: 87.46 ng/mL and 75.23 ng/mL
- Ratio (Brain/Plasma) [1, 5]: 1.55 and 1.37
- Brain concentration [1, 6]: 13.14 ng/g and 15.08 ng/g
- Plasma concentration [1, 6]: 9.83 ng/mL and 11.45 ng/mL
- Ratio (Brain/Plasma) [1, 6]: 1.32
- Brain concentration [1, 7]: BLOQ
- Plasma concentration [1, 7]: 1.13 ng/mL and 0.52 ng/mL and 0.28 ng/mL
- Brain concentration [1, 8]: BLOQ
- Plasma concentration [1, 8]: BLOQ
- AUClast ([1]; brain tissue, IV 1 mg/kg): 429.34 ng·h/g
- AUClnf ([1]; brain tissue, IV 1 mg/kg): 435.32 ng·h/g
- MRTlnf_obs ([1]; brain tissue, IV 1 mg/kg): 24.6 min
- blood-brain barrier penetration ([1]; detected in brain tissue): can penetrate the blood-brain barrier
- Cl_obs ([1]; plasma, IV 1 mg/kg): 57.63 mL/min/kg
- MRTlnf_obs ([1]; plasma, IV 1 mg/kg): 27.6 min
- Vss_obs ([1]; plasma, IV 1 mg/kg): 1.59 L/kg

SMILES: CC(OP(=O)(N1CC1)N1CC1)c1ccc([N+](=O)[O-])c2ccccc12 (stereo not shown) [Compound D]
- Remaining percentage (Plasma stability, monkey): 87.66%

SMILES: Cn1c(COP(=O)(NCCBr)NCCBr)cnc1[N+](=O)[O-] [TH-302, Evofosfamide]
- IC90 (MiaPaCa-2 cells; 21% O2, read-out: IC90 Normoxia): 9.68 µM
- IC90 (MiaPaCa-2 cells; <0.01% O2, read-out: IC90 Hypoxia): 0.388 µM
- HCR (MiaPaCa-2 cells; IC90 ratio normoxic/N2): 25
